Reference: patent US10550080B2 (BRISTOL-MYERS SQUIBB COMPANY, priority 2016, dated 2020)

Experiments:
[1] = molecular target: NaV1.7 (Homo sapiens (Human), UniProt Q15858); assay: Automated electrophysiology, IonWorks Barracuda population patch clamp, NaV1.7 current (inactivated-state protocol); format: cell-based; conditions: HEK 293 cells expressing NaV1.7; 600 sec compound incubation; read-out: NaV1.7 Barra IC50
Protocol: (§1) Automated Electrophysiology: Ion Works Barracuda population patch clamp (PPC). PPC measurements were performed using an IonWorks Barracuda instrument (Molecular Devices Corporation, Union City, Calif.) using either PatchPlate™ PPC substrates (Molecular Devices Corporation) with 64 apertures per well. The ability to average currents from 64 recordings from each well greatly improves data consistency and recording success rates in the measurement of NaV1.7 mediated ionic currents. Calculated leak current was digitally subtracted from the total cell NaV1.7 current for each sample point acquired.
(§2) NaV1.7 currents were elicited by a voltage clamp protocol designed to bias the NaV1.7 channels to their inactivated state as follows. From holding potential of −60 mV cells were briefly hyperpolarized to −100 mV for 1.25 sec, then stepped to −20 mV for 20 sec to inactivate the channels. This was followed by a relatively brief hyperpolarization to −100 mv for 300 ms, then a 20 msec test pulse to −20 mV to elicit the NaV1.7 current used to measure the pharmacology of all test compounds. Compounds were incubated for 600 sec between the pre- and post-compound reads. The external recording solution used was (in mM) 137 NaCl, 4 KCl, 1 MgCl2, 1.8 CaCl2, 10 Hepes, 10 glucose, pH to 7.4 with NaOH, and the internal solution used was (in mM) 100 K-gluconate, 40 KCl, 3.2 zMgCl2, 5 EGTA, 10 HEPES pH to 7.2 with KOH. The same solutions were used to record NaV1.5 currents, with the following voltage clamp protocol. NaV1.5 currents were elicited by a voltage clamp protocol designed to bias the NaV1.5 channels to their inactivated state as follows. From holding potential of −40 mV cells were briefly hyperpolarized to −100 mV for 300 ms, then stepped to −10 mV for 20 sec to inactivate the channels. This was followed by a relatively brief hyperpolarization to −100 mv for 30 ms, then a 20 msec test pulse to −10 mV to elicit the NaV1.5 current used to measure the pharmacology of all test compounds.
(§3) HEK 293 cells expressing NaV1.7 and NaV1.5 channels, were used (Essen Biosciences, Ann Arbor, Mich.). Cells were cultured in T-175 flasks and passaged every 2 to 3 days at 1:3 to 1:6 seeding density dilutions. Cells were grown to 70% to 90% confluence in a flask and removed from the incubator (37° C., 5% CO2) 1 to 3 days after plating. Growth medium was aspirated from the culture flasks. Cells were gently rinsed with 10 ml of PBS (Catalog number: 14190144, Gibco) to remove residual media. Next a total of 2 mL TrypLE (Gibco) solution was added, and the flasks containing cells were sat for 3 min at RT, after which, the cells became visibly rounded and were easily dislodged from the bottom of the flask with a few brief taps on a solid surface. A total of 8 mL of media was added to the flask to inactivate the TrypLE, and the mixture was centrifuged at 910 rpm for 4 min. The cell supernatant was decanted, and the cell pellets were resuspended in 5-6 mL of external solution followed by gentle triturations using a 10 ml pipette, and transferred to a 15 ml conical tube and immediately brought to the IW Barracuda instrument.
(§4) Peak membrane currents were analyzed with IW Barracuda software and exported to Excel for further analysis. Concentration response curve fitting was performed with BMS in-house software. IC50 values were obtained by fits of the Hill equation to the average percent inhibition data plotted versus compound concentration. […] Results are reported in Table 1 (NaV1.7 Barra IC50 in nM and NaV1.5 Barra IC50 in nM).

[2] = molecular target: hNaV1.7 (Homo sapiens (Human), UniProt Q15858); assay: Ligand Binding Assay (LBA), radioligand displacement on hNaV1.7 HEK293 cell membranes; conditions: 0.5 nM [3H] radioligand, 24 hours at room temperature; read-out: NaV1.7 LBA IC50
Protocol: Ligand Binding Assay (LBA): hNaV1.7 binding affinities were determined with a filtration binding assay using purified membranes from HEK293 cells stably expressing hNaV1.7. HEK293 cells from a 10-stack cell culture flask (approximately 10^10 cells) were dissociated, frozen, and stored at −80° C. To prepare membranes, the frozen cell pellet was thawed and suspended in 6 ml hypotonic lysis buffer (50 mM HEPES, 0.1% mammalian protease inhibitor cocktail). 1 ml of resuspended cells was added to an additional 6 ml of lysis buffer and homogenized with 30 strokes of a tight pestle in a glass homogenizer. Homogenate was centrifuged at 1000×g for 10 minutes at 4° C. and the resulting supernatant was further centrifuged at 38,500×g for 60 minutes at 4° C. The resulting pellet was resuspended in binding buffer (50 mM HEPES, 130 mM NaCl, 5.4 mM KCl, 0.8 mM MgCl2, 5 mM glucose, pH 7.4) and needle homogenized with a 25 gauge needle. Protein concentration was determined with a BCA protein assay. Purified membranes were aliquoted, flash frozen in an ethyl alcohol dry ice bath, and stored at −80° C. To measure displacement of a radiolabeled ligand, 50 μg of purified hNaV1.7 HEK cell membranes were incubated with test compounds (eight concentrations, in duplicate) and 0.5 nM [3H] labeled radioligand in a 96 well plate for 24 hours at room temperature on a shaker. The total binding reaction volume was 250 μl, consisting of 200 μl purified hNaV1.7 HEK cell membranes, 25 μl test compound, and 25 μl radioligand. Non-specific binding was defined by 20 μM of a reference hNaV1.7 inhibitor. Binding reactions were terminated by filtration through GF/B filters presoaked in 0.5% polyethyleneamine. Filters were washed 5 times with 2 ml each of 4′C wash buffer (50 mM Tris-HCl, pH 7.4 at 4° C.). Bound radioactivity captured on the filters was counted on a liquid scintillation counter. Specific binding, expressed as % inhibition, was fit with Graphpad Prism software to determine binding IC50 values. Results are reported in Table 1 (NaV1.7 LBA IC50 in nM).

[3] = molecular target: NaV1.5 (Homo sapiens (Human), UniProt Q14524); assay: Automated electrophysiology, IonWorks Barracuda population patch clamp, NaV1.5 current (inactivated-state protocol); format: cell-based; conditions: HEK 293 cells expressing NaV1.5; read-out: NaV1.5 Barra IC50
Protocol: as §1, §2, §3, §4

Chain of NaV1.5 (Q14524 whole entry): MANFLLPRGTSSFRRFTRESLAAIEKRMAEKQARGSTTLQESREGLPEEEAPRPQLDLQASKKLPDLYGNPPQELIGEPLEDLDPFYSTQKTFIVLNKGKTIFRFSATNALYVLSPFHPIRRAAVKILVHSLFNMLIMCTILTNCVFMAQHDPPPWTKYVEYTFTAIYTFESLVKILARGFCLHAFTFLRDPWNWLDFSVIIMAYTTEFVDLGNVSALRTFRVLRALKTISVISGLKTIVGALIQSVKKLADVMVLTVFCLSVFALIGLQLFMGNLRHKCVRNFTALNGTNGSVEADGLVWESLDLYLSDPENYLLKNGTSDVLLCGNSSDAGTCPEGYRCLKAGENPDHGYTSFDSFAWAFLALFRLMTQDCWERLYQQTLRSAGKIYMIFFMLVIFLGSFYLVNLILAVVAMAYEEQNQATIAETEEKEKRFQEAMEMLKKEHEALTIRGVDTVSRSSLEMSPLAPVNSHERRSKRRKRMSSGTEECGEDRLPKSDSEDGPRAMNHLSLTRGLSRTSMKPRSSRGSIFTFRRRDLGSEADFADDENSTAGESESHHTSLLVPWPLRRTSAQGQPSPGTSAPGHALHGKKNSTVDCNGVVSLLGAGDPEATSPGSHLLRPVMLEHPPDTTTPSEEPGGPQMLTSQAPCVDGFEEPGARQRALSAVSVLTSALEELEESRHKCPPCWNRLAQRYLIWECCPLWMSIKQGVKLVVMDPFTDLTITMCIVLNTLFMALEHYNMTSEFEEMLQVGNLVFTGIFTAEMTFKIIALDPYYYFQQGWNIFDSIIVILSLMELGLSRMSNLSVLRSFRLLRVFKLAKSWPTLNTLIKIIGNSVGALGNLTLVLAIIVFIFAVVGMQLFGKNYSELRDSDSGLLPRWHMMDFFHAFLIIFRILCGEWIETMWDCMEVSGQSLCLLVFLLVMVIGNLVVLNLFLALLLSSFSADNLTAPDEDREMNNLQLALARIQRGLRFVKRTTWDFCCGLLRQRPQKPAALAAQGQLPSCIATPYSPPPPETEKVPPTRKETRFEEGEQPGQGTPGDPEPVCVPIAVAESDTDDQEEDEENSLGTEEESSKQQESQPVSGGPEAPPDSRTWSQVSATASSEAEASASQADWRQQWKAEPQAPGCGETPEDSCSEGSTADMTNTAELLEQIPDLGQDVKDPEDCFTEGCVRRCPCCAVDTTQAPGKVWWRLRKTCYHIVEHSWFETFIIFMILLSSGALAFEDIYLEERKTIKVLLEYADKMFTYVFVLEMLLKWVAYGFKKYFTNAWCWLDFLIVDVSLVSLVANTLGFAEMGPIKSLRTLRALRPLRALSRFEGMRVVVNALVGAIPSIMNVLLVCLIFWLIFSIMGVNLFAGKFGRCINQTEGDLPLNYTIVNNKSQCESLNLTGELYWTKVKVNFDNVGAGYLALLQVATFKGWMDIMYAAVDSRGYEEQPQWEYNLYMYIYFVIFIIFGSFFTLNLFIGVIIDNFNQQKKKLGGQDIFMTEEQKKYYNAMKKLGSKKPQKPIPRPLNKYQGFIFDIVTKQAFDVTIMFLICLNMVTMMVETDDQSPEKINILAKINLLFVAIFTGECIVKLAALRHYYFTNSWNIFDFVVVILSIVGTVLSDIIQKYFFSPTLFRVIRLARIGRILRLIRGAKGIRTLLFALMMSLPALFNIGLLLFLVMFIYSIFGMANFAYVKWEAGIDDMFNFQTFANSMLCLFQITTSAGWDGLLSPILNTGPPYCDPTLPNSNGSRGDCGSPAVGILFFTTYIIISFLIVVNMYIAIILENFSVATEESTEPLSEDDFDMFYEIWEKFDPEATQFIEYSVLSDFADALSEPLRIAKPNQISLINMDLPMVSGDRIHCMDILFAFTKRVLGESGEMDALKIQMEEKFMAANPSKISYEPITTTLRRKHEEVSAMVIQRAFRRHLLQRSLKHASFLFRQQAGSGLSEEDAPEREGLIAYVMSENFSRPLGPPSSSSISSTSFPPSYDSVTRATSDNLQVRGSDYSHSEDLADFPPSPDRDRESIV
Chain of hNaV1.7 (Q15858 whole entry): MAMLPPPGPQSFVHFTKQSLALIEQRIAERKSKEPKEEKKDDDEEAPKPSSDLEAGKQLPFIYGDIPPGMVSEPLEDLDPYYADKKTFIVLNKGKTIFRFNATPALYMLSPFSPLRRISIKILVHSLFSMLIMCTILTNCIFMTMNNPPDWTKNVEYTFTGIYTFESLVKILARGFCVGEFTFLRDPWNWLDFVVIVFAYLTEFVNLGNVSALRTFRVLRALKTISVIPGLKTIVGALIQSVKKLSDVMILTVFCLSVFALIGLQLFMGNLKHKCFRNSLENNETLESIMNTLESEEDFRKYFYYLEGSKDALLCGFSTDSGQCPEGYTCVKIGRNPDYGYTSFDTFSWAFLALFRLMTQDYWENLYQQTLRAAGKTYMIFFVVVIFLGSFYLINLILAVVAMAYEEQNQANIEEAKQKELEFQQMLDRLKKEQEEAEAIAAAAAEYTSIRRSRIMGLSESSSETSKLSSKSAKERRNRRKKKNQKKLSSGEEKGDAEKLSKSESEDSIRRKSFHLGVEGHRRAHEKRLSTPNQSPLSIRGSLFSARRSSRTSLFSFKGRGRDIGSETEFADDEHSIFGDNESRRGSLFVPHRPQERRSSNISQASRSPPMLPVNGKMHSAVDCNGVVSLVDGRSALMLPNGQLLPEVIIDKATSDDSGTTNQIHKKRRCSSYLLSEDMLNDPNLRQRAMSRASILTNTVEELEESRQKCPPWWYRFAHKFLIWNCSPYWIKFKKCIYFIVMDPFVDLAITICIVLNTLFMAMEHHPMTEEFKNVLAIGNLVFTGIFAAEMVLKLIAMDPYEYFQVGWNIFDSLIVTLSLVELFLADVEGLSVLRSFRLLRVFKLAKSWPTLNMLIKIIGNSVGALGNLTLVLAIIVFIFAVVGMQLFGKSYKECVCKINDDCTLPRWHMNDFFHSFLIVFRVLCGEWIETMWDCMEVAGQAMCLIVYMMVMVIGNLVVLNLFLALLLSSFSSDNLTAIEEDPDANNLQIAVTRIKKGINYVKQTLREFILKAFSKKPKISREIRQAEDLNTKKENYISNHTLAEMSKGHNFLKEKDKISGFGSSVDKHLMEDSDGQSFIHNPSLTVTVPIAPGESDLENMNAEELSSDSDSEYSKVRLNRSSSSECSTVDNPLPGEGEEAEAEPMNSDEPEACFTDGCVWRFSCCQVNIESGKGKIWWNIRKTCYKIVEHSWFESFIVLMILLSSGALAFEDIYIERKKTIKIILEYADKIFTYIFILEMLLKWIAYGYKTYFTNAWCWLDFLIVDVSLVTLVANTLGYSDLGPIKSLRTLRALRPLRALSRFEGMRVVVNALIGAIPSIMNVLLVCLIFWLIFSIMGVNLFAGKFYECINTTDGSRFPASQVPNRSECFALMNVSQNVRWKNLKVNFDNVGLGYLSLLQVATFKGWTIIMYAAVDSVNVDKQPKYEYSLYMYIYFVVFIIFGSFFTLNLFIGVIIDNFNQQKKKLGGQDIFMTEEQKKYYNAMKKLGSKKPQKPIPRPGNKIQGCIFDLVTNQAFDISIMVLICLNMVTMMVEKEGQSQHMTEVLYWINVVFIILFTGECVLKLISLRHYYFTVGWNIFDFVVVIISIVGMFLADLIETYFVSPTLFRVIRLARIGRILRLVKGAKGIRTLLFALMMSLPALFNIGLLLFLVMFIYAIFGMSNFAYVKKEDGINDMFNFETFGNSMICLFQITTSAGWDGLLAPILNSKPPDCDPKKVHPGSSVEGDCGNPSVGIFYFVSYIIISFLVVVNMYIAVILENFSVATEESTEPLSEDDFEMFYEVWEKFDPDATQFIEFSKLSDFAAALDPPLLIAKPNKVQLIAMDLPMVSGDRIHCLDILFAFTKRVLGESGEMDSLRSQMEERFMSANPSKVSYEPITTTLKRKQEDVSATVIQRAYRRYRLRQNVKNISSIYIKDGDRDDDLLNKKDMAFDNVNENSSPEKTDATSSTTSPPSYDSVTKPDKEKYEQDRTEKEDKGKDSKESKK
Chain of NaV1.7 (Q15858 whole entry): as above

Structure (SMILES)	IC50 [1] [µM]	IC50 [2] [µM]	IC50 [3] [µM]
CC(C)COc1ncc(-c2cn(C)c3cc(C(=O)NS(C)(=O)=O)c(F)cc23)cc1Cl [Example 42, 3-(5-Chloro-6-isobutoxypyridin-3-yl)-5-fluoro-1-methyl-N-(methylsulfonyl)-1H-indole-6-carboxamide]	0.524	0.011	7.17
CC(C)COc1ncc(-c2cn(C)c3cc(C(=O)NS(=O)(=O)C4CC4)c(F)cc23)cc1Cl [Example 43, 3-(5-Chloro-6-isobutoxypyridin-3-yl)-N-(cyclopropylsulfonyl)-5-fluoro-1-methyl-1H-indole-6-carboxamide]	0.31	0.0034	4.85
CC(C)COc1ccc(-c2cn(C)c3cc(C(=O)NS(C)(=O)=O)c(F)cc23)cn1 [Example 44, 5-Fluoro-3-(6-isobutoxypyridin-3-yl)-1-methyl-N-(methylsulfonyl)-1H-indole-6-carboxamide]	0.104	0.086	18.7
CC(C)COc1ccc(-c2cn(C)c3cc(C(=O)NS(=O)(=O)C4CC4)c(F)cc23)cn1 [Example 45, N-(Cyclopropylsulfonyl)-5-fluoro-3-(6-isobutoxypyridin-3-yl)-1-methyl-1H-indole-6-carboxamide]	0.059	0.026	3.7
Cn1cc(-c2ccc(C(F)(F)F)cc2)c2cc(F)c(C(=O)NS(C)(=O)=O)cc21 [Example 46, 5-Fluoro-1-methyl-N-(methylsulfonyl)-3-(4-(trifluoromethyl)phenyl)-1H-indole-6-carboxamide]	0.049	0.084	> 30
Cn1cc(-c2ccc(C(F)(F)F)cc2)c2cc(F)c(C(=O)NS(=O)(=O)C3CC3)cc21 [Example 47]	0.016	0.039	3.82
Cn1cc(-c2ccc(C(F)F)cc2)c2cc(F)c(C(=O)NS(C)(=O)=O)cc21 [Example 48, 3-(4-(Difluoromethyl)phenyl)-5-fluoro-1-methyl-N-(methylsulfonyl)-1H-indole-6-carboxamide]	0.091	0.956	> 30
Cn1cc(-c2ccc(C(F)F)cc2)c2cc(F)c(C(=O)NS(=O)(=O)C3CC3)cc21 [Example 49, N-(Cyclopropylsulfonyl)-3-(4-(difluoromethyl)phenyl)-5-fluoro-1-methyl-1H-indole-6-carboxamide]	0.038	0.146	9.67
